Measured values: patent US9597297B2, “Combination of pilocarpin and methimazol for treating Charcot-Marietooth disease and related disorders” (PHARNEXT, priority 2008, dated 2017)

Key:
PMP22 mRNA = PMP22 mRNA expression in primary rat Schwann cells after 24 hrs drug incubation; type: cell-based
Experimental: Vials of rat Schwann cells (SC) primary culture (Sciencell # R1700) are defrosted and seeded at the density of 10,000 cells/cm2 in “Sciencell Schwann cell medium” (basal medium from Sciencell # R1701) in poly-L-lysine pre-coated 75 cm^2 flasks. The culture medium is composed of basal medium, 5% Fetal Bovine Serum (3H-Biomedical AB #1701-0025), 1% Schwann cell growth supplement (3H Biomedical AB #1701-1752), 1% Gentamicin (Sigma #G1397) and 10 μM of Forskolin (Sigma # F6886) to promote their proliferation.
After reaching confluency (4 to 10 days depending on cell batch), Schwann cells are purified by gentle agitation or by thy1.1 immunopanning that allow SC isolation from adherent fibroblasts, to produce cultures that are at least 95% pure. SC are then counted (Tryptan blue method) and seeded in poly-L-lysine pre-coated 75 cm^2 flask in the same SC medium. At confluency, cells are rinsed, trypsinized (trypsin-EDTA 1× diluted from Invitrogen #1540054), diluted in PBS without calcium and magnesium) counted and platted in 12 well-dishes (140 000 cells/well) in Sciencell Schwann cell medium with 5% of FBS, 1% of cell growth supplement (CGS), 40 μg/ml of gentamicin and 4 μM Forskolin.
Primary Schwann cell cultures (SC) are established from Sprague-Dawley newborn rats (between P0 and P2) sciatic nerves. All newborn rats are sacrificed and isolated in a Petri dish. Dissection is performed under sterile conditions.
The dorsal skin is removed from the hind paw and the lower torso. The sciatic nerve is isolated and transferred to a culture dish containing ice-cold Leibovitz (L15, Invitogen #11415) supplemented with 1% penicillin/streptomycin solution (50 UI/ml and 50 μg/ml, respectively; Invitrogen #15070) and 1% of bovine serum albumin (BSA, Sigma A6003). Both nerves per rats are transferred in a 15 ml tube containing ice-cold L15. The L15 medium is then removed and replaced by 2.4 ml of DMEM (Invitrogen #21969035) with 10 mg/ml of collagenase ([…]). Nerves are incubated in this medium for 30 minutes at 37° C. The medium is then removed and both nerves are dissociated by trypsin (10% trypsin EDTA 10×, Invitrogen #15400054) diluted in PBS without calcium and magnesium (Invitrogen #2007-03) for 20 min at 37° C. […] Cells are counted (Tryptan blue method) and seeded in Falcon 100 mm Primaria tissue culture plates at the density of 5·10^5 to 10^6 cells/dish. […]
After 8 days of culture (4 to 10 days depending on cell batches), Schwann cells reach confluency and the culture, containing a large amount of contaminating fibroblasts, is purified by the thy1.1 immunopanning method. […] Once they reach confluency, cells are rinsed, trypsinized (trypsin-EDTA), counted and platted in 12 well-dishes (100 000 cells/well). […]

[1] = system: CMT transgenic rat model (PMP22 transgenic rats); experiment: Post-mortem weighing of sciatic nerves and soleus muscles in CMT rats; type: in vivo; details: CMT female rats treated 20 weeks
Description: FIG. 5: The analysis of the post-mortem samples obtained from the animals treated with drugs as described in the legend to FIG. 3. The rats treated with drugs and placebo during 20 weeks, were deeply anesthetized and the entire sciatic nerves and soleus muscles were carefully sampled and weighted. The graphs present the 30 mean values of these measurements.
Sciatic nerves are excised and used for weighting as well as for molecular biology and/or biochemical essays. (RT-Q-PCR for PMP22 mRNA and Western blots for myelin proteins quantifications; Cayman's EIA kits—for biochemical markers such as arachidonic acid metabolites, HPLC quantification for steroids and amines, ELISA for CNTF, IL-6 etc.) performed according to generally used protocols and for analytical procedures (drug concentrations measures).
The hind limbs muscles (soleus) are sampled, weighted, snap-frozen and preserved at −80° C. until analysis (the same as for sciatic nerves).

Row | SMILES | dose inducing the most important PMP22 mRNA down-regulation (PMP22 mRNA; primary Schwann cells) | PMP22 mRNA level (PMP22 mRNA; primary rat Schwann cells, 1 mM or 1 μM of compound A) | mass of sciatic nerves and soleus muscles [1] | PMP22 mRNA level of expression (PMP22 mRNA; primary Schwann cells, low doses 10 nM and 50 nM)
1 | Cn1cc[nH]c1=S [methimazole, 1-methyl-3H-imidazole-2-thione] | lower dose | significantly decreased | completely corrected | 
2 | CC[C@@H]1C(=O)OC[C@@H]1Cc1cncn1C [pilocarpine, (3S,4R)-3-ethyl-4-[(3-methylimidazol-4-yl)methyl]oxolan-2-one] | 1 µM |  | smaller than that of methimazole | significantly down-regulated
